According to paper PMC9518288, “The mechanism and pharmacodynamics of 2-((1H-indol-3-yl)thio/sulfinyl)-N-pheny acetamide derivative as a novel inhibitor against human respiratory syncytial virus” (Journal of Enzyme Inhibition and Medicinal Chemistry, 2022):

Legend:
RSV-Luc [1] = assay: In vivo mouse imaging, intraperitoneal injection; parameters: species or system BALB/c mice; details: i.p. 10, 30, 90 mg/kg once a day, days 1-5; except 4–49 C 10 and 90 mg/kg groups on the second day
Method: (§1) Female BALB/c mice of 6-8 weeks were purchased from Charles River Laboratories, Beijing, China and randomly divided into different groups with six mice in each group. All animal experiments were performed in compliance with protocols approved by the Institutional Animal Care and Use Committees of Tsinghua University (No. 17-DZJ1). The compounds (DMSO and ribavirin of 90 mg/kg was used as negative and positive control, respectively) with three different dose groups of 10, 30 and 90 mg/kg were administered to mice by intraperitoneal (i.p.) injection or oral route (anaesthesia with 2% halothane) at zero day and 1 h prior to the mice infected with 50 μL RSV-Luc (1 × 10^6 PFU), and then once a day for 5 consecutive days post RSV-Luc infection. For the in vivo mouse imaging, 50 μL PBS containing D-Luciferin Potassium Salt (75 mg/kg) was administered to BALB/c mice via nasal drip at days 1, 2, 3, 4 and 5 since RSV-Luc infection, and 5 min later, the whole-body images of BALB/c mice were acquired using an IVIS Lumina II in vivo imaging system (PE, Waltham, MA, USA). And the signal intensity was quantified as the total flux (photons/seconds) using Living Image software (PE).
Female BALB/c mice of 6–8 weeks were randomly divided into different groups with 6 mice in each group. […]

[2] = test system: RSV adsorption to HEp-2 cells; assay: RSV adsorption analyses (RT-qPCR); type: cell-based, Human respiratory syncytial virus; details: RSV 5 MOI, 1 h at 4 °C
Method: (§2) Figure 2. Investigation on the underlying mechanism 4–49 C and 1-HB-63 inhibiting wtRSV replication. (A) Time-of-addition analyses of 4-49C and 1-HB-63 replication. The HEp-2 cells were infected with wtRSV at a multiplication of infection (MOI) of 5 for 2 h (37 °C, 5% CO2). The cells were washed with PBS and the media containing drug (4-49C, 1-HB-63, RSV-604, GS-5806 and Ribavirin at 1 mM, 200 μM, 10 μM, 1 mM and 100 μM, respectively.) were added at −1, 0, 2, 4, 6, 8, 10, 12 and 14 h separately and incubated till 24 h post infection. Then, the cells were harvested and lysed for RNA extraction and RT-qPCR assay. The results were a representative of three independent experiments, and shown as means ± standard and expressed as % negative control, although in many cases the bars for the standard deviation were obscured by the symbols given the small margin of values. (B) RSV adsorption analyses. After HEp-2 cells seeded into 24 well plates for 24 h, the cold media containing RSV (5 MOI) and compounds of 4–49C, 1-HB-63 and P13 at 1 mM, 200 μM and 100 μM, respectively, was added and incubated for 1 h at 4 °C. Then, the total RNA was isolated and RT-qPCR was performed. (C) RSV minigenome assay. After 24 h, we cotransfected RSV minigenome plasmid of pBR322B-RSV-Gluc with four auxiliary plasmids into BHK/T7 cells and detected the expression of Gluc in the supernatant. […]

[3] = test system: RSV minigenome (pBR322B-RSV-Gluc) in BHK-T7 cells; assay: RSV minigenome assay (Gluc expression); type: cell-based, Human respiratory syncytial virus; details: BHK-T7, 24 h, vs DMSO
Method: BHK-T7 cells were seeded into 24 well plates at a density of 2 × 10^4 cells/well and incubated for 24 h. Then the RSV minigenome plasmid encoding […] (pBR322B-RSV-Gluc) was mixed with the helper plasmids (pCITE-N, pCITE-P, pCITE-L and pCITE-M2-1) in an Eppendorf tube containing 250 μL Opti-MEM. Meanwhile, the transfection reagent of Lipofectamine 2000 (Invitrogen, CA, USA) was diluted in another tube containing 250 μL Opti-MEM and incubated 5 min at room temperature. Then, the plasmids were mixed with the transfection reagent and incubated at room temperature for 30 min. After that, the BHK-T7 culture media were replaced with the DNA-lipo-optiMEM mixture and incubated for 4 ∼ 6 h (37 °C, 5% CO2). Then the DNA-lipo-optiMEM mixture was replaced with media containing the compounds (4–49 C at 1 mM and 1-HB-63 at 200 μM) and further incubated for 24 h (37 °C, 5% CO2). Finally, after the supernatant of the BHK-T7 cells was transferred into 96 well plate, the Gluc activity was determined by using LUMI star (BMG ABTECH, Ortenberg, Germany) following the manufacturer’s instructions after adding the chromogenic substrate of Gaussia Luciferase Flex Assay Kit (NEB, Ipswich, USA). The results were recorded by photography and/or evaluated with OPTIMA software (BMG LABTECH). The resultant signal strength was quantified as relative light unit (RLU).
as §2

wtRSV in HEp-2 cells = assay: Time-of-addition assay (RT-qPCR); type: cell-based, Human respiratory syncytial virus; details: wtRSV MOI 5, HEp-2, added at −1 to 14 h, RT-qPCR at 24 h post infection
Method: The time-of-addition assay was performed as follows according to our previous work and literature[25]^,[27]. HEp-2 cells were plated in 96 well plates at 1.5 × 10^4 cells per well in 100 µL culture medium and incubated for 24 h (37 °C, 5% CO2). Then, HEp-2 cells were infected with wtRSV at a multiplication of infection (MOI) of 5 for 2 h (37 °C, 5% CO2). The cells were washed with PBS and the media containing drugs and compounds of 4–49 C, 1-HB-63, RSV-604, GS-5806 and Ribavirin at 1 mM, 200 μM, 10 μM, 1 mM and 100 μM, respectively, were added at −1, 0, 2, 4, 6, 8, 10, 12 and 14 h post infection. After the treated cells were further cultured and collected at 24 h post infection, the total RNA was isolated from the HEp-2 cells using TRIzol reagent (Thermo Fisher Scientific, Waltham, MA, USA) and reverse transcribed with GoScript Reverse Transcriptase kit (Promega, Madison, WI, USA). Then, RT-qPCR was performed as described previously.
as §2, with “After HEp-2 cells seeded into 24 well plates for 24 h, the cold media containing RSV (5 MOI) and compounds of 4–49C, 1-HB-63 and P13 at 1 mM, 200 μM and 100 μM, respectively, was added and incubated for 1 h at 4 °C. Then, the total RNA was isolated and RT-qPCR was performed. (C) RSV minigenome assay.” left out

RSV-Luc [4] = assay: Determination of RSV titre from lung tissues (RT-qPCR); type: in vivo, BALB/c mice; details: i.p. 10, 30, 90 mg/kg, day 5 post-infection
Method: Following the experiment of the in vivo mouse imaging mentioned above, the mice were sacrificed. The lung tissues were collected, weighed, quickly frozen under liquid nitrogen and ground with a tissue homogeniser. Then the total RNA was extracted by Trizol from 100 µL homogenates. The viral RNA sample (1 µL) was mixed with the SYBR Green supermix (10 µL), plasmid pMD-18T-N (1 µL, copy number from 1 × 10^7 copies/μL to 1 × 10^5 copies/μL), the upstream and downstream primers, respectively (10 µM, 1 µL) and water (1 µL). Reactions were performed in SLAN-96P Real-Time PCR System (Shanghai Hongshi Medical Technology) as follows: 42 °C for 60 min (for reverse transcription), 95 °C for 1.5 min, 95 °C for 15 s and 60 °C for 1 min, for 40 cycles. The reaction data were analysed by determining the threshold cycle (Ct).
Female BALB/c mice of 6–8 weeks were randomly divided into different groups with 6 mice in each group. All animal experiments were performed in compliance with protocols approved by the Institutional Animal Care and Use Committees of Tsinghua University (No. 17-DZJ1). At day 0, three different doses of 4–49 C and 1-HB-63 (10 mg/kg, 30 mg/kg, 90 mg/kg) were administered to mice by intraperitoneal (i.p.) injection, respectively, with DMSO and ribavirin of 90 mg/kg separately used as negative and positive control. […]

RSV-Luc [5] = assay: In vivo mouse imaging, oral route (intragastric); parameters: species or system BALB/c mice; details: intragastric 30 and 90 mg/kg, gavage twice a day
Method: as §1, with “and then once a day for 5 consecutive days post RSV-Luc infection.” left out
In order to further make clear whether the anti-RSV activity of 4–49 C and 1-HB-63 is dependent on the administration route or not, these two compounds were given intragastrically (Figure 5(A)). […]

[6] = Pharmacokinetic study in rat; type: in vivo, Sprague − Dawley (SD) rats; details: SD rat
Method: Six male Sprague − Dawley (SD) rats, randomly divided into two groups of 3 each, were treated with 4–49 C predissolved in 5% DMSO, 5% Solutol and 90% Saline by intravenous injection (iv, 5 mg/kg) and in 5% DMSO and 95% (0.5%MC) by intragastric administration (ig, 10 mg/kg), respectively. Blood samples (100 μL) were collected into K2-EDTA tubes by retro‐orbital bleeding under anaesthesia using isoflurane at 0.033, 0.083, 0.25, 0.5, 1, 2, 4, 7 and 24 h after dosing. And then plasma samples were obtained by centrifuging at 5000 rpm for 10 min at 4 °C and stored at −80 °C until analysis using HPLC–MS/MS.
To investigate the pharmacokinetic parameters in vivo, 4–49 C was selected for the pharmacokinetic experiments in SD rat model. The SD rats were divided into two groups (n = 3) and treated by iv at 5 mg/kg dose and by ig at 10 mg/kg dose, respectively. Plasma samples were collected up to 24 h postdosing and the concentration of 4–49 C was measured by using HPLC-MS/MS.

[7] = male, Sprague-Dawley, iv, 5 mg/kg, plasma, n = 3, Mean ± SD
[8] = positive controls, concentration not given

## O=C(C[S+]([O-])c1c[nH]c2ccccc12)Nc1ccccc1Br (stereo not shown) [1-HB-63]
RSV-Luc [1]
  fluorescence signals (RSV-Luc replication in lungs) compared with DMSO-treated group: did not display significant differences
[2]; 1-HB-63 at 200 μM
  inhibition of RSV replication by preventing virus adsorption: neither of 4-49 C and 1-HB-63 inhibited RSV replication by preventing virus adsorption
[3]; 1-HB-63 at 200 μM
  inhibition of expression of Gluc gene: sharply contrast
wtRSV in HEp-2 cells; compound at 200 μM
  time points of addition at which virus replication is inhibited: significantly inhibited virus replication when added at the time points of −1, 0, 2 and 4 h
RSV-Luc [4]
  virus titres in lung tissues compared with DMSO: no significant differences
RSV-Luc [5]
  fluorescence signals (RSV-Luc replication) compared with DMSO negative control group: did not exhibit significant differences

## CCOc1ccccc1NC(=O)CSc1c[nH]c2ccc(OC)cc12 [4–49 C]
[6]; ig, 10 mg/kg, up to 24 h, HPLC-MS/MS (data not shown)
  concentration in plasma samples after ig administration: no 4–49 C detected in plasma samples
[6]; iv, 5 mg/kg, plasma, n = 3, Mean ± SD
  MRTIV: 7.86 ± 0 min
[6]; [7]
  AUC(0-inf): 70 ± 17 ng·h/mL
  AUC(0-t): 69.3 ± 17 ng·h/mL
  Cmax: 454 ± 111 ng/mL
  half-life: 10 ± 18 min
  k el: 0.00119 s⁻¹
RSV-Luc [1]
  fluorescence signals (RSV-Luc replication in lungs) compared with DMSO-treated group: did not display significant differences
[2]; 4-49C at 1 mM
  inhibition of RSV replication by preventing virus adsorption: neither of 4-49 C and 1-HB-63 inhibited RSV replication by preventing virus adsorption
[3]; 4–49 C at 1 mM
  inhibition of expression of Gluc gene: could not be inhibited
wtRSV in HEp-2 cells; compound at 1 mM
  time points of addition at which virus replication is inhibited: significantly inhibited virus replication when added at the time points of −1, 0 and 2 h
RSV-Luc [4]
  virus titres in lung tissues compared with DMSO: no significant differences
RSV-Luc [5]
  fluorescence signals (RSV-Luc replication) compared with DMSO negative control group: did not exhibit significant differences

## Cc1cn2nc([C@@H]3CCCCN3C(=O)c3cc(Cl)ccc3NS(C)(=O)=O)cc2nc1N1CC[C@H](N)C1 [GS-5806, reference compound]
[3]; [8]
  inhibition of expression of Gluc gene: could not be inhibited
wtRSV in HEp-2 cells; compound at 1 mM
  time points of addition at which virus replication is inhibited: inhibition activity only when added up to 0 and 2 h

## NC(=O)c1ncn([C@@H]2O[C@H](CO)[C@@H](O)[C@H]2O)n1 [ribavirin, Ribavirin, reference compound]
[3]; [8]
  inhibition of expression of Gluc gene: sharply contrast
